Data from PubChem BioAssay AID1845204 (Molecular Pharmacology Branch, DTP, NCI, 2023).
Where “and” joins values, the source holds several entries; their conditions need not be identical. Equal entries are not always repeated.

System: HSSY-II tumor spheroid viability
Assay: Anticancer human tumor HSSY-II cell line growth inhibition;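 further: spheroids exposed to compounds for seven days before reading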;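 on viability, T/C: percent of DMSO vehicle control viability so 100% = untreated level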
Conditions: spheroids with HUVEC and MSC; for viability, T/C: stronger effect = lower value
Outline: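 Single agents and combinations were tested on spheroids built from tumor cells plus HUVEC and hMSC, at half-log dilutions starting at or near clinical Cmax, else 10 microM; final DMSO 0.25% (v/v).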

[1] = curve of first compound, second compound 0.003 µM
[2] = curve of first compound, second compound 0.00949 µM
[3] = curve of first compound, second compound 0.03 µM
[4] = curve of first compound, second compound 0.0949 µM
[5] = curve of first compound, second compound 0.3 µM
[6] = second compound 0.003 µM, first compound 0.0316 µM
[7] = second compound 0.003 µM, first compound 0.1 µM
[8] = second compound 0.003 µM, first compound 0.316 µM
[9] = second compound 0.003 µM, first compound 1 µM
[10] = second compound 0.003 µM, first compound 3.16 µM
[11] = second compound 0.003 µM, first compound 10 µM
[12] = second compound 0.00949 µM, first compound 0.0316 µM
[13] = second compound 0.00949 µM, first compound 0.1 µM
[14] = second compound 0.00949 µM, first compound 0.316 µM
[15] = second compound 0.00949 µM, first compound 1 µM
[16] = second compound 0.00949 µM, first compound 3.16 µM
[17] = second compound 0.00949 µM, first compound 10 µM
[18] = second compound 0.03 µM, first compound 0.0316 µM
[19] = second compound 0.03 µM, first compound 0.1 µM
[20] = second compound 0.03 µM, first compound 0.316 µM
[21] = second compound 0.03 µM, first compound 1 µM
[22] = second compound 0.03 µM, first compound 3.16 µM
[23] = second compound 0.03 µM, first compound 10 µM
[24] = second compound 0.0949 µM, first compound 0.0316 µM
[25] = second compound 0.0949 µM, first compound 0.1 µM
[26] = second compound 0.0949 µM, first compound 0.316 µM
[27] = second compound 0.0949 µM, first compound 1 µM
[28] = second compound 0.0949 µM, first compound 3.16 µM
[29] = second compound 0.0949 µM, first compound 10 µM
[30] = second compound 0.3 µM, first compound 0.0316 µM
[31] = second compound 0.3 µM, first compound 0.1 µM
[32] = second compound 0.3 µM, first compound 0.316 µM
[33] = second compound 0.3 µM, first compound 1 µM
[34] = second compound 0.3 µM, first compound 3.16 µM
[35] = second compound 0.3 µM, first compound 10 µM

SMILES | IC50 [1] | IC50 [2] | IC50 [3] | IC50 [4] | IC50 [5] | viability, T/C [6] | viability, T/C [7] | viability, T/C [8] | viability, T/C [9] | viability, T/C [10] | viability, T/C [11] | viability, T/C [12] | viability, T/C [13] | viability, T/C [14] | viability, T/C [15] | viability, T/C [16] | viability, T/C [17] | viability, T/C [18] | viability, T/C [19] | viability, T/C [20] | also measured
CC(C)n1c(=O)n(C)c2cnc3cc(F)c(-c4ccc(OCCCN5CCCCC5)nc4)cc3c21 + CC[C@@]1(O)C(=O)OCc2c1cc1n(c2=O)Cc2cc3c(CN(C)C)c(O)ccc3nc2-1 | < 31.6 nM | < 31.6 nM | < 31.6 nM | < 31.6 nM | < 31.6 nM | 48% | 45.2% | 51.9% | 40.6% | 14% | 10.2% | 15% | 14.7% | 14.3% | 13% | 9.79% | 7.58% | 10.1% | 9.85% | 9.61% | viability, T/C [21]: 7.8%; viability, T/C [22]: 4.59%; viability, T/C [23]: 2.72%; viability, T/C [24]: 9.24%; viability, T/C [25]: 8.61%; viability, T/C [26]: 8.35%; viability, T/C [27]: 6.09%; viability, T/C [28]: 4.16%; viability, T/C [29]: 2.59%; viability, T/C [30]: 6.62%; viability, T/C [31]: 6.23%; viability, T/C [32]: 5.88%; viability, T/C [33]: 5.84%; viability, T/C [34]: 4.56%; viability, T/C [35]: 3.48%
CNCc1ccc(-c2cc(-c3nc(-c4ccc(S(=O)(=O)C(C)C)cc4)cnc3N)on2)cc1 |  |  |  |  |  |  |  |  |  |  |  |  |  |  |  |  |  |  |  |  | viability, T/C (compound 0.00949 µM): 97.3% and 98% and 97.5%; viability, T/C (compound 0.03 µM): 74.1% and 79.3% and 68.2%; viability, T/C (compound 0.0949 µM): 8.25% and 5.12% and 7.65%; viability, T/C (compound 0.3 µM): 4.73% and 4.15% and 5.89%; viability, T/C (compound 0.949 µM): 1.97% and 2.75% and 1.7%; viability, T/C (compound 3 µM): 0.23% (2×) and 0.46%; IC50 (curve of compound): 45.8 nM and 47.3 nM and 42.4 nM
Cc1cc(C)c(CNC(=O)c2cc(-c3ccc(CN4CCOCC4)cc3)cc3c2cnn3C2CCCC2)c(=O)[nH]1 + CC[C@@]1(O)C(=O)OCc2c1cc1n(c2=O)Cc2cc3c(CN(C)C)c(O)ccc3nc2-1 | > 10000 nM | < 31.6 nM | < 31.6 nM | < 31.6 nM | < 31.6 nM | 79.2% | 81% | 81.3% | 81.9% | 79.1% | 64% | 39.4% | 40.1% | 42.9% | 47.4% | 38% | 49.7% | 6.06% | 7.28% | 7.77% | viability, T/C [21]: 9.15%; viability, T/C [22]: 9.78%; viability, T/C [23]: 11.9%; viability, T/C [24]: 6.68%; viability, T/C [25]: 11.9%; viability, T/C [26]: 7.28%; viability, T/C [27]: 7.31%; viability, T/C [28]: 8.02%; viability, T/C [29]: 9.19%; viability, T/C [30]: 4.56%; viability, T/C [31]: 4.19%; viability, T/C [32]: 4.75%; viability, T/C [33]: 5.11%; viability, T/C [34]: 6.37%; viability, T/C [35]: 7.28%
